Positions of bridges follow the written chain, without caps; N, C: chain ends. Residues, ends and D or L forms follow the SMILES beside them. *: point of attachment. FITC = O=C1OC2(c3ccc(O)cc3Oc3cc(O)ccc32)c2ccc(NC(=S)*)cc21; Ahx = NCCCCCC(=O)O
Legend:
[1] = system: HA-GPR55; assay: confocal co-localization of FITC-P1 with HA-GPR55 in HeLa cells; type: cell-based, human; details: 40 μg/ml (26.8 μM) FITC-P1, 1 h, live HeLa cells overexpressing HA-GPR55
Method: HEK293 or CHO cells were rinsed with PBS, fixed for 10 min at room temperature in 4% (v/v) paraformaldehyde, and permeabilized in 0.02% saponin, 0.5% BSA, and 50 mM ammonium chloride in PBS (blocking solution). Then, the cells were stained with an anti-HA antibody (1:1,000) for 1 h at room temperature for GPR55 visualization, followed by 30 min at room temperature with Alexa488- or Alexa568-conjugated anti-mouse secondary antibodies (1:800), with 33 nM Alexa546-labeled phalloidin (Life Technologies) for filamentous actin visualization, or 2 μg/ml Hoechst (Sigma) for nuclei staining, with all reagents diluted in blocking solution. Then, the cells were washed three times with PBS plus 0.02% Tween-20, and the coverslips were mounted and examined by confocal microscope (LSM 510; Zeiss, Germany), with images acquired using the ZEN 2.1 (black) program (Carl Zeiss Microscopy GmbH 1997-2015). For localization studies of FITC-P1 and GPR55 in live HeLa cells, the cells were incubated with an anti-HA antibody (1:1,000) in PBS plus 3% BSA for 1 h on ice, then washed with PBS, and incubated with an Alexa568-conjugated anti-mouse secondary antibody (1:800) in PBS plus 3% BSA for 45 min on ice. The cells were then incubated with FITC-P1 as reported, fixed for 10 min in 4% (v/v) paraformaldehyde, and examined by confocal microscopy, as above.

[2] = system: GPR55 (HeLa cells); assay: FITC-peptide binding to HeLa cells silenced for GPR55 (siRNA, shRNA) or re-expressing HA-GPR55 (FACS); design: species or system human; details: 40 μg/ml, 1 h at 37°C
Method: For transient interference of GPR55, HeLa cells were plated at 150,000 cells/6-well plate in growth medium without antibiotics, and 24 h later they were transfected with 75 pmol/well non-targeting #2 siRNA (siNT) or human GPR55-targeting siRNAs (D-00581-05) (siGPR55) (siGENOME, Dharmacon, Chicago, IL, USA), using Lipofectamine 2000, according to the manufacturer instructions. Twenty-four hours later, the cells were detached by trypsinization, plated again at 150,000 cells/6-well plate, and 10 h later they were re-transfected with siNT or with siGPR55. Forty-eight hours later, the cells were analyzed. For stable interference of GPR55, HeLa cells were transfected with 1.7 μg/well OmicsLink shRNA expression clone CSHCTR001-CU6 (shCtrl) or clone HSH022476-3-CU6 (shGPR55) from GeneCopoeia (Rockville, MD, USA), using Lipofectamine 2000, according to the manufacturer instructions. Forty-eight hours after transfection, HeLa clones stably expressing shRNAs were selected in growth medium containing 0.3 μg/ml puromycin.
Wild-type HeLa cells plated at a density of 150,000 cells/6-well plate, or cells stable interfered with shCtrl and shGPR55 plated at a density of 120,000 cells/6-well plate, or HeLa cells transiently interfered (48 h after the first interference) were washed twice with HBSS^++, and incubated with the indicated concentrations of the FITC-labeled peptides for the indicated times at 37°C in 1 ml HBSS^++ plus 0.1% fatty-acid-free BSA and 25 mM HEPES, pH 7.5. Then, the cells were washed twice with PBS plus 0.01% Tween-20, and once with PBS, and incubated for 5 min at 37°C with PBS with 2 mM EDTA, detached by scraping, and resuspended in PBS plus 3% BSA. Cell-associated FITC fluorescence was evaluated using FACS, after addition of 4 μg/ml propidium iodide, to exclude dead cells from the FACS gating. Fluorescence intensity was evaluated as % FITC-positive cells and mean fluorescence, recorded before (for peptide binding) and after (for peptide internalization) addition of 0.2% trypan blue to quench the fluorescence of the extracellular bound peptides.

[3] = target: T1, immunoprecipitated HA-GPR55 (Homo sapiens, UniProt Q9Y2T6); assay: FITC-peptide binding to immunoprecipitated HA-GPR55; details: FITC-P1 40 μg/ml (26.8 μM), 2 h at 37°C; three independent experiments in triplicate
T1 construct: expressed in transfected cells; host or cells: HeLa cells, transient transfection; anti-HA immunoprecipitate on beads

[4] = system: EHEB cells; assay: growth of EHEB cells (cell counting); type: cell-based, human; details: ML-191 0.5 μM, 96 h
Method: (§1) HEK293 cells were bought in 2012, from the American Type Culture Collection (ATCC catalogue number: CRL-11268), and were grown in monolayers in DMEM supplemented with 10% FBS, 2 mM L-glutamine, 100 U/ml penicillin, and 100 μg/ml streptomycin. HeLa cells were received from Dr. D. Corda, Institute of Protein Biochemistry, CNR, Naples, which were bought in 2006 from the European Collection of Cell Culture (ECACC catalog number: 93021013). Wild-type HeLa cells were maintained in MEM with 10% FBS, 2 mM L-glutamine, 100 U/ml penicillin, 100 μg/ml streptomycin, and nonessential amino acids (i.e., 100 μM glycine, L-alanine, L-asparagine, L-aspartic acid, L-glutamic acid, L-proline, L-serine). The HeLa clones were selected in the presence of 0.3 μg/ml puromycin. CHO cells were received from Dr. D. Corda, and were grown in DMEM supplemented with 10% FBS, 2 mM L-glutamine, 100 U/ml penicillin, 100 μg/ml streptomycin, and nonessential amino acids. EHEB cells are an Epstein-Barr-virus-immortalized cell line that was established from a chronic lymphocytic leukemia patient, and these were purchased from DSMZ (Deutsche Sammlung von Mikroorganismen und Zellkulturen GmbH, Braunschweig, Germany). DeFew cells are a non-Hodgkin lymphoma cell line, and these were obtained from Prof. G. Scala, ‘Magna Graecia’ University of Catanzaro [46–48]. Both of these human B-lymphoblastoid cell lines were maintained in RPMI 1640 with 10% heat-inactivated (30 min at 55°C) FBS, 2 mM L-glutamine, 100 U/ml penicillin, and 100 μg/ml streptomycin, and were routinely tested for BCR expression and anti-IgG stimulation, according to previous studies. All of the cells were grown in a humidified atmosphere of 5% CO2 and at 37°C return.
(§2) The EHEB cell growth rate was evaluated by cell counting. EHEB and DeFew cells were plated into 24-well plates in 400 μl growth medium at a density of 25,000 cells/ml. The cells were grown in the absence and presence of different agents, which were added immediately after cell plating and replenished every 24 h. Every 24 h, the cells were put through independent and blinded counts in triplicate, using a Neubauer cell-counting chamber. After 48 h, the cells were diluted 1:2 with fresh medium and 400 μl were transferred in a new 24-well for the following peptide additions. At 96 h, the cells were counted with 0.2% trypan blue, to determine cell viability.

[5] = system: EHEB cells; assay: annexin-V staining of EHEB cells (FACS); type: cell-based, human; details: biotinylated P1 1 μg/ml alone or streptavidin-bound; ML-191 0.5 μM
From the text: In parallel, for analysis of apoptosis markers, 200,000 cells/sample were harvested, washed in PBS, stained with fluorescent annexin V using human annexin V-FITC kits (Bender MedSystems GmbH, Vienna, Austria), according to the manufacturer instructions, and analyzed by FACS.

[6] = system: DeFew cells; assay: growth of DeFew cells (cell counting); type: cell-based, human; details: ML-191 0.5 μM, 96 h
Method: as §1, §2

T1 sequence (Q9Y2T6 whole entry): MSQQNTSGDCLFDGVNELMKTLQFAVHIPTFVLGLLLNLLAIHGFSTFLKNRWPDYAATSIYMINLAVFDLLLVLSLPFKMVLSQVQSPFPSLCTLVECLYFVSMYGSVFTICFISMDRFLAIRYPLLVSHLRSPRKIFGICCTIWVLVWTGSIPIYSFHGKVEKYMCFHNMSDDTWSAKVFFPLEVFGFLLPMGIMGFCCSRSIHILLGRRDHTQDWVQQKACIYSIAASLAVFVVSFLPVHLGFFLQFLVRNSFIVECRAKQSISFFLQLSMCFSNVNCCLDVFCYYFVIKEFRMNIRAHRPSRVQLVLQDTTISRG

SMILES: CC(C)C[C@@H]1NC(=O)[C@H]([C@@H](C)O)NC(=O)[C@@H]2CCCN2C(=O)[C@H](CO)NC(=O)[C@H](CC(N)=O)NC(=O)[C@H](CCCCN)NC(=O)[C@H](CCCCN)NC(=O)[C@@H](NC(=O)CCCCCNC(=S)Nc2ccc3c(c2)C(=O)OC32c3ccc(O)cc3Oc3cc(O)ccc32)CSSC[C@@H](C(=O)O)NC1=O [FITC-P1] ({FITC-Ahx}-CKKNSPTLC-OH; disulfide 1-9; N-terminus and C-terminus assumed)
- co-localization with GPR55 [1]: distributed at the membrane level, with evident spots of co-localization
- decrease in binding, siGPR55 relative to siNT ([2]; 50% reduction in GPR55 expression, four independent experiments): 26%
- less binding to shGPR55 HeLa clones relative to shCtrl ([2]; 90% decrease in GPR55 mRNA, three independent experiments): 34%
- increase in binding on GPR55 re-expression in shGPR55 clones versus empty vector ([2]; three independent experiments): 25%
- binding to glycosylated versus deglycosylated GPR55 [3]: bound equally to both glycosylated and deglycosylated GPR55-immunoprecipitates

SMILES: Cc1ccc(C2(C(=O)N3CCC(n4nc(-c5ccccc5)oc4=O)CC3)CC2)cc1 [ML-191]
- Cell counts/ml ([4]; replenished every 24 h, DMSO 801 ±18, means ±SEM, n = 4 in duplicate, p <0.01): 578 ±49 ×1,000
- Growth inhibition ([4]; relative to DMSO-treated cells): (28%)
- annexin V cell decoration [5]: did not increase annexin V cell decoration, similar to ML-191
- Cell counts/ml ([6]; replenished every 24 h, DMSO 1053 ±41, means ±SEM, n = 4 in duplicate, p <0.01): 650 ±51 ×1,000
- Growth inhibition ([6]; relative to DMSO-treated cells): (38%)
